ChEMBL document CHEMBL2150938, “Pyrrolo[2,3-b]quinoxalines as inhibitors of firefly luciferase: their Cu-mediated synthesis and evaluation as false positives in a reporter gene assay” (Bioorg Med Chem Lett, 2012)

What was measured:
[1] = molecular target: 3',5'-cyclic-AMP phosphodiesterase 4B (Homo sapiens) (UniProt Q07343); assay: Inhibition of PDE4B at 30 uM by luciferase reporter gene assay
[2] = system: Lampyridae; assay: inhibition of firefly luciferase at 30 uM after 15 mins by luminescence assay

Chain of 3',5'-cyclic-AMP phosphodiesterase 4B (Homo sapiens) (Q07343 whole entry): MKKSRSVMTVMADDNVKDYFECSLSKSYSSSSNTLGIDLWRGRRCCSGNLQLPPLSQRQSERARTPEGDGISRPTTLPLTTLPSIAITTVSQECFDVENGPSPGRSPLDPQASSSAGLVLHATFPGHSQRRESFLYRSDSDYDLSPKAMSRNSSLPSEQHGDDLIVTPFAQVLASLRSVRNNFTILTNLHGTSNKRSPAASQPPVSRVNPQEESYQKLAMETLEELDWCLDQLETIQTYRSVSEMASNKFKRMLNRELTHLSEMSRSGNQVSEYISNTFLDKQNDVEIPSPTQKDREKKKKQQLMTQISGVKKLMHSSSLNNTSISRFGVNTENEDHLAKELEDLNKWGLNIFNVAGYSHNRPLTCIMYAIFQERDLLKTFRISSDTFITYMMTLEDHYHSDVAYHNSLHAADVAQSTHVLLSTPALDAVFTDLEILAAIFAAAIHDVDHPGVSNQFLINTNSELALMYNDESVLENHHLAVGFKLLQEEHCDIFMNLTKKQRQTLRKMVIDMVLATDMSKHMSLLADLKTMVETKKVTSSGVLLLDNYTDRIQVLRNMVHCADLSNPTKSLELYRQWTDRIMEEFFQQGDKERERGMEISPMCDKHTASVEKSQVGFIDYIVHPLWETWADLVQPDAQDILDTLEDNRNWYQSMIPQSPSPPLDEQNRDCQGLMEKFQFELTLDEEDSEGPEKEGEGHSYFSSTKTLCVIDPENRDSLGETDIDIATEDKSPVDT

Row | inhibition [1] [%] | inhibition [2] [%] | SMILES
1 | 94.7 | 92.4 | CS(=O)(=O)n1c(-c2ccccc2)cc2nc3ccccc3nc21
2 | 98.3 | 98.4 | c1ccc(-c2cc3[nH]c4ccccc4nc-3n2)cc1
3 | 100 | 99.2 | CC(C)(C)c1cc2nc3ccccc3nc2[nH]1
